{"source": "paper PMC6270165", "about": "“Synthesis and Biological Evaluation of 3-Benzisoxazolyl-4-indolylmaleimides as Potent, Selective Inhibitors of Glycogen Synthase Kinase-3β” (Molecules, 2013)", "key": {"GSK-3β": {"target": "T1, GSK-3β (Homo sapiens, UniProt P49841)", "T1 construct": "GST (N, cleaved yes); made in house; host or cells: Escherichia coli BL21-Codon Plus (DE3)", "T1 sequence (P49841 whole entry)": "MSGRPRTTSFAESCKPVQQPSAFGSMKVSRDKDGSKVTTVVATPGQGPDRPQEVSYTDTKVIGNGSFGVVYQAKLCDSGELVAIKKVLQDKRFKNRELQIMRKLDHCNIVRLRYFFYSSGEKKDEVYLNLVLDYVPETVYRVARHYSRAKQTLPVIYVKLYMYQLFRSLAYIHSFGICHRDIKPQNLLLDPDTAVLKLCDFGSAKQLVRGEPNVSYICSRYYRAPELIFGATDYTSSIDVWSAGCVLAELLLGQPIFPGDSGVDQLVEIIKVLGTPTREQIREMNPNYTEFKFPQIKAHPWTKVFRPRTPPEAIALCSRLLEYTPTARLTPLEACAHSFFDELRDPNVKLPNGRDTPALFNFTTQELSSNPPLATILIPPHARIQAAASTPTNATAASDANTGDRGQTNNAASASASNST", "test": "GSK-3β kinase assay (Z'-LYTE Kinase Assay kit Ser/Thr 9 Peptide)", "assay_type": "biochemical", "experimental": "(§1) GSK3β belongs to CMGC family. Here, the other family members were used to evaluate the selectivity of GSK3β inhibitors, including PKC-epsilon (AGC family), JAK2 (TK family), Braf (TKL family), DRAK2 (CAMK family) and IKKβ (other family).The recombinant GST-GSK-3βprotein was expressed in Escherichia coli strain BL21-Codon Plus (DE3), purified by GSTrap affinity chromatography, and cleaved by thrombin. The GSK-3β kinase assay was carried out with the Z´-LYTETM Kinase Assay kit Ser/Thr 9 Peptide substrate (Invitrogen, Grand, NY, USA) in 10 μL reaction volume containing 50 nM enzyme, 30 μM ATP and 2 μM substrate peptide. Drak2 Proteins were presented by professor Jiang-ping Wu (Laboratory of Immunology, Research Centre, CHUM, Notre Dame Hospital, Pavilion DeSève). The Drak2 kinase reaction was performed in a final assay volume of 3.4 μL using the ADP-GLO Kinase Assay Kit (Promega, Madison, WI, USA), according the ADP-GLO protocol and read on an EnVision plate reader. The recombinant PKC-epsilon, IKKβ, and JAK2 with N-terminal His-tag were expressed using baculovirus expression system and purified with Ni-Beads. BRAF protein was from Carna Biosciences, Inc. (Kobe Port Island, Japan). And the related kinase reactions were performed in a final assay volume of 10 μL using the related HTRF Assay Kit (Cisbio, Codolet, France). Reactions were according the HTRF protocol and read on an EnVision plate reader. All reactions were carried out in triplicate. […] Data were expressed as mean ± SE."}, "Drak2": {"target": "T2, Drak2 (Homo sapiens, UniProt O94768)", "T2 sequence (O94768 1-372)": "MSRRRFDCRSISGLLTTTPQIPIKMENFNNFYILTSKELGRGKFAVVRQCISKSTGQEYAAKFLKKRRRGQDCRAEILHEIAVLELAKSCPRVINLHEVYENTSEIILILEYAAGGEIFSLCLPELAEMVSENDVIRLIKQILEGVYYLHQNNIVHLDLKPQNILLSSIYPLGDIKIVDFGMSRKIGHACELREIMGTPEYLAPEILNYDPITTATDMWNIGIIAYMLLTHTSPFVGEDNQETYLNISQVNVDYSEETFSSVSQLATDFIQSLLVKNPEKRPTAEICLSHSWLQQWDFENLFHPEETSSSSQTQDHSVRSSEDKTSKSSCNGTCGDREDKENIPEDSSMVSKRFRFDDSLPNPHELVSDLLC", "test": "Drak2 kinase assay (ADP-GLO)", "assay_type": "biochemical", "conditions": "read-out: Drak2 inhibition% at 0.8 μg/mL (~2 μM)", "experimental": "as §1"}, "[1]": {"system": "Tau phosphorylation at Ser 396 in SH-SY5Y cells", "test": "Aβ25-35-induced Tau phosphorylation (Ser396) in SH-SY5Y cells, Western blotting", "assay_type": "cell-based, human", "conditions": "100 nM, inhibitors 1 hour, then Aβ25–35 6 hours, Western blot", "experimental": "It has been implicated that GSK-3β is involved in multiple cellular processes, and its ability to hyperphosphorylate Tau protein and induce neurofibrillary tangle was intensively studied. Therefore, the cell-based assay examining Tau phosphorylation at Serine 396 represents a direct functional assay to measure the cellular activity of GSK-3β inhibitors. Compounds 7c, 7f, 7j–l and 7o–q were tested for the ability to reduce Tau phosphorylation at Ser 396 in human neuroblastoma SH-SY5Y cells. LiCl, a well-known inhibitor of GSK-3β [24], was used as a positive control in this assay. […] The Aβ-induced Tau hyperphosphorylation results in neurofibrillary tangle formation, which plays an important role in Alzheimer’s disease. […] In addition, the predictions about these compounds’ brain permeability were performed using ADME module with Discovery Studio 2.1 software package.\nSH-SY5Y human neuroblastoma cells were obtained from the American Type Culture Collection (ATCC, Manassas, VA, USA). Cells were cultured in 1:1 DMEM:Ham's F12 containing 10% (v/v) fetal bovine serum (HyClone, Logan, UT, USA), 1% penicillin, and 1% streptomycin at a humidified atmosphere with 5% CO2. The medium was changed every 2 days. […] Antigen-antibody complexes were detected by the ECL Kit."}}, "data": [{"compound": "O=C1NC(=O)C(c2cn(CCCN3CCOCC3)c3ccc(Br)cc23)=C1c1noc2ccccc12", "note": "[7c, 3-(Benzo[d]isoxazol-3-yl)-4-(5-bromo-1-(3-morpholinopropyl)-1H-indol-3-yl)-1H-pyrrole-2,5-dione]", "values": [{"measurement": "IC50", "setting": "GSK-3β; 50 nM enzyme, 30 μM ATP, 2 μM substrate peptide, triplicate, mean ± SE, read-out: GSK-3β inhibitory activity IC50 (nM) ± SE", "result": "10.2 ± 5.9", "unit": "nM"}, {"measurement": "GSK-3β inhibitory activity, fold increase as compared to 7h", "setting": "GSK-3β; ratio of IC50 values, versus 7h", "result": 14, "unit": "fold"}, {"measurement": "Selectivity for GSK-3β over other tested kinases", "setting": "GSK-3β; versus PKC-epsilon, JAK2, BRAF, IKK2 and Drak2", "result": "high selectivity"}, {"measurement": "inhibition at 2 µM", "setting": "Drak2", "result": 1.67, "unit": "%"}, {"measurement": "Effect on Aβ25-35-induced Tau phosphorylation at Ser 396", "setting": "[1]", "result": "obviously reduce"}]}]}
